Reference: patent US7071163B2, “Compounds for targeting hepatocytes in vivo” (Mirus Bio Corporation, priority 2002, dated 2006)
Peptide text beside a SMILES is read from it. * marks the point of attachment. Biotin = O=C1N[C@H]2[C@H](CS[C@H]2CCCCC(=O)*)N1; PEG4 = NCCOCCOCCOCCOCCC(=O)O

Experiments:
hepatocytes [1] = assay: Delivery of Cy3-streptavidin by biotinylated synthetic p17 peptide, mouse; details: peptide to SA molar ratio of 18:1, 10 min
Method: Purified peptide was mixed with 250 μg of Cy3-labled SA (Jackson ImmunoResearch Laboratories, Inc. West Grove, Pa.) at peptide to SA molar ratios of 1.2:1, 9:1, 18:1, 45: 1, and 90:1 in a solution containing 25 mM HEPES, 125 mM NaCl, pH 8. The mixtures were injected into mice via the tail vein (400 μl injection volume). […] All animals were sacrificed 10 min after injection and liver samples were excised and frozen tissue sections prepared and placed onto microscopic slides. Air dried tissue sections were fixed and counterstained with Alexa 488 phalloidin and To-Pro-3 as previously described and analyzed by confocal microcopy.
The ability of biotin-peptide conjugates to target Cy3-labeled streptavidin to hepatocytes in mice is determined by confocal fluorescent microscopy as described above.

hepatocytes [2] = assay: Delivery of Cy3-streptavidin by biotinylated synthetic p17 peptide, monkey; assay type: in vivo, Cyno monkey; details: b107 says ratio 18:1, method b106 13:1, 10 min
Method: A. Delivery of streptavidin (SA) by a biotinylated p17 peptide (MC893). […] Purified peptide was mixed with 250 μg of Cy3-labled SA (Jackson ImmunoResearch Laboratories, Inc. West Grove, Pa.) at peptide to SA molar ratios of 1.2:1, 9:1, 18:1, 45: 1, and 90:1 in a solution containing 25 mM HEPES, 125 mM NaCl, pH 8. The mixtures were injected into mice via the tail vein (400 μl injection volume). For monkey injection, 3.3 mg MC893 peptide was mixed with 3 mg of Cy3-SA, a 13:1 molar ratio, and purified using a G50 column. The sample was recovered in 12 ml 25 mM HEPES, 125 mM NaCl, pH 8 and slowly injected into a Cyno monkey via a subcutaneous vein in the arm. All animals were sacrificed 10 min after injection and liver samples were excised and frozen tissue sections prepared and placed onto microscopic slides. Air dried tissue sections were fixed and counterstained with Alexa 488 phalloidin and To-Pro-3 as previously described and analyzed by confocal microcopy.

mouse hepatocytes = assay: Delivery of biotinylated Cy3-dextran and Cy3-siRNA by MC892-SA conjugate; assay type: in vivo
Method: B. Delivery of biotinylated cargo by SA-p17 peptide conjugates. […] 2 mg SA was dissolved in 200 μl dH2O and added to a 200 μl 100 mM sodium phosphate/300 mM NaCl/2 mM EDTA, pH 7.2. A 10 mole equivalent of SPDP (Pierce) dissolved in DMF at 10 mg/ml was then added to the SA solution and mixed at RT for 1 h. The SPDP-modified streptavidin was then purified using a G-25 Sephadex column. It was determined that each SA molecule contained an average of 1.8 PDP groups based on a pyridine-2-thione assay. The SA-PDP conjugate was added to MC892 at a 1:18 molar ratio and incubated for 24 h at 4° C. The MC892-SA conjugates were purified on a G-25 Sephadex column. The sample was then freeze-dried and dissolved in a solution of 25 mM MES, 125 mM NaCl, pH 6.5 at 3 mg/ml.
One mg of NHS-PEG4-Biotin suspended in dry DMF at 10 mg/ml was added to 30 mg amino dextran (Molecular Probes, 70 kDa, 17.9 mole amine per polymer) that was dissolved in 0.1 M NaHCO3 at 10 mg/ml (molar ratio of 4.5 to 1). This solution was mixed overnight at room temperature, transferred into cellulose tubing (Fisher, 12–14,000 MWCO) and dialyzed once against 20 L 20 mM NH4Cl followed twice against 5 L dH20. The dialyzed sample was lyophilized. The sample was then dissolved in dH2O at 30 mg/ml. Each dextran polymer was estimated to contain an average of 0.5 biotin group. This biotinylated dextran was fluorescently labeled with Cy3-OSu (Amersham) at a weight ratio of 1:0.074. Excess free dye was removed using a Sephadex G-50 column. Labeled dextran was eluted in 25 mM NH4CO3. The sample was freeze dried and resuspended at 7.5 mg/ml in 25 mM HEPES/125 mM NaCl, pH 8.0. Biotinylated siRNA (5′-biotin-LC-siRNA, Dharmacon) was labeled with Cy3 using Cy3 LabelIT (Mirus Corp) according to manufacturer's instructions. […]
Liver samples were removed 10 min after injection, placed into OCT freezing medium and snap frozen in liquid nitrogen. […] Processed slides were mounted in Vectorshield (Vector Laboratories, Burlingame, Calif.) and analyzed using a Zeiss LSM510 confocal microscope.

monkey hepatocytes = assay: Targeting of recombinant p17 proteins to monkey hepatocytes; assay type: in vivo; details: 500 μg via subcutaneous vein in arm, 1 h
Method: 6. Targeting of recombinant p17 proteins to monkey hepatocytes. Recombinant full-length p17 proteins were prepared as previously described. Purified p17 proteins, 500 μg of p17-K211 or p17-E211 in 33 ml of PBS, were slowly injected into monkeys via subcutaneous vein in arm. Liver samples were excised 1 h after injection, submerged in O.C.T. freezing medium and snap frozen in liquid nitrogen. Frozen liver sections (5–7 μm) were prepared using a cryostat and air-dried. Immunofluorescence detection for p17 proteins was performed as described above. Liver sections from an uninjected monkey were used as a control. Images represent an area of 75 μm^2 from a flattened composite of 8 consecutive confocal optical sections (each 0.4 μm thick). P17 is seen in black, cell nuclei in gray, F-actin in gray near basolateral membranes and in near bile capillary membranes.

In the case of `C[C@H](NC(=O)[C@H](CCC(=O)O)NC(=O)[C@H](CC(=O)O)NC(=O)[C@H](CCCNC(=N)N)NC(=O)[C@H](Cc1ccccc1)NC(=O)CNC(=O)[C@H](CCCCN)NC(=O)[C@@H](NC(=O)[C@H](CCC(=O)O)NC(=O)[C@H](CC(=O)O)NC(=O)[C@H](CCCNC(=N)N)NC(=O)[C@H](Cc1c[nH]c2ccccc12)NC(=O)[C@H](CCC(N)=O)NC(=O)[C@H](CCCCN)NC(=O)[C@@H](NC(=O)[C@H](CC(N)=O)NC(=O)[C@@H](NC(=O)[C@H](C)NC(=O)[C@H](CC(N)=O)NC(=O)[C@@H](NC(=O)[C@H](CO)NC(=O)[C@H](CO)NC(=O)[C@H](CCC(=O)O)NC(=O)[C@H](CC(N)=O)NC(=O)[C@H](CCCCN)NC(=O)CCOCCOCCOCCOCCNC(=O)CCOCCOCCOCCOCCNC(=O)CCCC[C@@H]1SC[C@@H]2NC(=O)N[C@@H]21)[C@@H](C)O)[C@@H](C)O)[C@@H](C)O)[C@@H](C)O)C(=O)N[C@@H](CCCCN)C(=O)N[C@@H](CCCNC(=N)N)C(=O)N[C@@H](Cc1ccccc1)C(=O)N[C@@H](CCCCN)C(=O)N[C@@H](CC(N)=O)C(=O)N[C@H](C(=O)N[C@@H](C)C(=O)NCC(=O)O)[C@@H](C)O` [MC893] ({Biotin-PEG4-PEG4}-KNESSTNATNTKQWRDETKGFRDEAKRFKNTAG-OH), the “targeting of Cy3-SA to hepatocytes” value (hepatocytes [1]) is reported as “efficiently targeted Cy3-SA to hepatocytes” and the “targeting of Cy3-SA to hepatocytes” value (hepatocytes [2]) is reported as “efficiently targeted Cy3-SA to hepatocytes”.

For “Cys-PEG4-Lys-Asn-Glu-Ser-Ser-Thr-Asn-Ala-Thr-Asn-Thr-Lys-Gln-Trp-Arg-Asp-Glu-Thr-Lys-Gly-Phe-Arg-Asp-Glu-Ala-Lys211-Arg-Phe-Lys-Asn-Thr-Ala-Gly [MC892]”, the “Cy3-dextran signal in hepatocytes” value (mouse hepatocytes; MC892-SA with biotinylated Cy3-dextran, 20 min (not shown)) was “internalized Cy3-dextran signals found in clusters near cell nuclei”, the “Cy3-dextran signal in hepatocytes” value (mouse hepatocytes; MC892-SA with biotinylated Cy3-labeled 70 kDa dextran, 10 min after injection) was “high levels of Cy3-dextran signal was observed inside hepatocytes” and the “targeting of Cy3-siRNA to liver” value (mouse hepatocytes; MC892-SA with biotinylated Cy3-siRNA, 10 min) was “successful targeting of siRNA to the liver”.

B1: p17-K211: bacterially expressed His-tagged full-length wild-type T7 p17 tail fiber protein (SEQ ID 4) (protein)
chain: MGSSHHHHHHSSGLVPRGSHMANVIKTVLTYQLDGSNRDFNIPFEYLARKFVVVTLIGVDRKVLTINTDYRFATRTTISLTKAWGPADGYTTIELRRVTSTTDRLVDFTDGSILRAYDLNVAQIQTMHVAEEARDLTTDTIGVNNDGHLDARGRRIVNLANAVDDRDAVPFGQLKTMNQNSWQARNEALQFRNEAETFRNQAEGFKNESSTNATNTKQWRDETKGFRDEAKRFKNTAGQYATSAGNSASAAHQSEVNAENSATASANSAHLAEQQADRAEREADKLENYNGLAGAIDKVDGTNVYWKGNIHANGRLYMTTNGFDCGQYQQFFGGVTNRYSVMEWGDENGWLMYVQRREWTTAIGGNIQLVVNGQIITQGGAMTGQLKLQNGHVLQLESASDKAHYILSKDGNRNNWYIGRGSDNNNDCTFHSYVHGTTLTLKQDYAVVNKHFHVGQAVVATDGNIQGTKWGGKWLDAYLRDSFVAKSKAWTQVWSGSAGGGVSVTVSQDLRFRNIWIKCANNSWNFFRTGPDGIYFIASDGGWLRFQIHSNGLGFKNIADSRSVPNAIMVENE
modifications: His tag; Bacteriophage T7
With B1 the “liver localization of p17 protein in monkey” value (monkey hepatocytes) was “efficiently targets to monkey hepatocytes”.
